This is an account of results in patent US10899738B2 (THE REGENTS OF THE UNIVERSITY OF MICHIGAN, priority 2016, dated 2021).

The target of the first test is menin protein (Homo sapiens (Human), UniProt O00255). In words: biochemical. Format: binding. The following applies: FP competitive binding; menin protein 4 nM, FAM-MM2 probe 2 nM. The method, boiled down: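 Test compounds displaced FAM-MM2 (2 nM) from 4 nM menin after 30 min equilibration at room temperature in PBS buffer containing bovine γ-globulin, 4% DMSO and Triton X-100. Binding was followed by fluorescence polarization. Competition curves were fitted by nonlinear regression to give IC50 and Ki.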
Chain of menin protein (O00255 whole entry): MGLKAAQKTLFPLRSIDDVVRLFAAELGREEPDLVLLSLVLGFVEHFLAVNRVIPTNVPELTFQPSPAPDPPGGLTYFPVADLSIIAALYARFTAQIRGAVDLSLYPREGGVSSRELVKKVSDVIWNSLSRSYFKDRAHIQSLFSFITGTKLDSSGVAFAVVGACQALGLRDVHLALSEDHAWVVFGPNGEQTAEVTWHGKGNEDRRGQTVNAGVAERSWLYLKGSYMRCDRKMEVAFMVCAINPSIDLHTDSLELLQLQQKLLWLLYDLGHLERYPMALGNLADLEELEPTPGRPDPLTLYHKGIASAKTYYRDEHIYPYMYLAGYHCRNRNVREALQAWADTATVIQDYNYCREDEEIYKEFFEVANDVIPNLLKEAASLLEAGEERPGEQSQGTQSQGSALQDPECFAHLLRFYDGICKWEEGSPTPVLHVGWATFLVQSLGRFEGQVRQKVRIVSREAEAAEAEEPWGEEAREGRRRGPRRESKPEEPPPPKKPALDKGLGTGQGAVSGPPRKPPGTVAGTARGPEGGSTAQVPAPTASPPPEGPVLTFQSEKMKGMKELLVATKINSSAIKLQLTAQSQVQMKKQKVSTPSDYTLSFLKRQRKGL
As to `CCN1Cc2ccccc2C(C2CCCC2)(C2CCN(Cc3ccccc3Oc3ccc(C#N)cc3)CC2)C1` (stereo not shown) [compound 163, 4-(2-((4-(4-cyclopentyl-2-ethyl-1,2,3,4-tetrahydroisoquinolin-4-yl)piperidin-1-yl)methyl)phenoxy)benzonitrile], the “Menin Binding Affinity IC50 (μM)” value was “No inhibition”.

Staying with this test, now noted: FP competitive binding; menin protein 4 nM, FAM-MM2 probe 2 nM; read-out: Menin Binding Affinity IC50.
On to `CC(=O)O[C@@H]1CCC[C@H]1C1(C2CCN(CC3CN(c4ccc(S(=O)(=O)C5CC5)cc4)C3)CC2)CN(C)Cc2ccc(F)cc21` (mixture of isomers) [compound 317, rac-(1R,2S)-2-(4-(1-((1-(4-(cyclopropylsulfonyl)phenyl)azetidin-3-yl)methyl)piperidin-4-yl)-6-fluoro-2-methyl-1,2,3,4-tetrahydroisoquinolin-4-yl)cyclopentyl acetate], for which the IC50 (commonly the concentration needed to halve the response being measured) is 161 nM.
As for `CNC(=O)O[C@@H]1CCC[C@H]1C(C#N)(c1ccccc1)C1CCN(CC2CN(c3ccc(S(=O)(=O)C4CC4)cc3)C2)CC1` (mixture of isomers) [compound 227, rac-(1R,2S)-2-(cyano(1-((1-(4-(cyclopropylsulfonyl)phenyl)azetidin-3-yl)methyl)piperidin-4-yl)(phenyl)methyl)cyclopentyl methylcarbamate], the IC50 was 498 nM.
Regarding `COC(=O)N[C@@H]1CCC[C@H]1C(C#N)(c1ccccc1)C1CCN(CC2CN(c3ccc(S(=O)(=O)C4CC4)cc3)C2)CC1` (mixture of isomers) [compound 320, rac-methyl ((1R,2S)-2-(cyano(1-((1-(4-(cyclopropylsulfonyl)phenyl)azetidin-3-yl)methyl)piperidin-4-yl)(phenyl)methyl)cyclopentyl)carbamate], the IC50 was 5100 nM.
For the compound `CCC(CC)CC1(C2CCN(CCCOc3ccc(C#N)cc3)CC2)NCCc2ccccc21` (stereo not shown) [compound 252, 4-(3-(4-(1-(2-ethylbutyl)-1,2,3,4-tetrahydroisoquinolin-1-yl)piperidin-1-yl)propoxy)benzonitrile], the half-maximal inhibitory concentration (IC50) was found to be 1200 nM.
Same read-out and setting: in the case of `N#Cc1ccc(OC2CC(N3CCC(C4(C5CCCC5)NCCc5ccccc54)CC3)C2)cc1` (single isomer, unassigned) [compound 130, 4-((1s,3s)-3-(4-(1-cyclopentyl-1,2,3,4-tetrahydroisoquinolin-1-yl)piperidin-1-yl)cyclobutoxy)benzonitrile] it was 10600 nM; in that of `CC(=O)O[C@H]1CCC[C@@H]1C(C#N)(c1ccccc1)C1CCN(CC2CN(c3ccc(C(=O)O)cc3)C2)CC1` (mixture of isomers) [compound 388, rac-4-(3-((4-(((1R,2S)-2-acetoxycyclopentyl)(cyano) (phenyl)methyl)piperidin-1-yl)methyl)azetidin-1-yl)benzoic acid], 15100 nM; in that of `CC(=O)O[C@H]1CCC[C@@H]1C(C#N)(c1cccc(F)c1)C1CCN(CC2CN(c3ccc(C#N)cc3)C2)CC1` (mixture of isomers) [compound 415, rac-(1S,2R)-2-(cyano(1-((1-(4-cyanophenyl)azetidin-3-yl)methyl)piperidin-4-yl)(3-fluorophenyl)methyl) cyclopentyl acetate], 16 nM.
For `N#Cc1ccc(OCCCCN2CC(C3(C4CCCC4)NCCc4ccccc43)C2)cc1` (stereo not shown) [compound 62, 4-(4-(3-(1-cyclopentyl-1,2,3,4-tetrahydroisoquinolin-1-yl)azetidin-1-yl)butoxy)benzonitrile], the IC50 came out at 36200 nM.
On the same count and under the same terms, as for `CNC(=O)O[C@H]1CCC[C@@H]1C(Cn1ccnc1C)(c1cccc(F)c1)C1CCN(CC2CN(c3ccc(Cl)cc3)C2)CC1` (mixture of isomers) [compound 413, rac-(1S,2R)-2-(1-(1-((1-(4-chlorophenyl)azetidin-3-yl)methyl)piperidin-4-yl)-1-(3-fluorophenyl)-2-(2-methyl-1H-imidazol-1-yl)ethyl)cyclopentyl methylcarbamate], the figure is 6 nM; as for `CC(=O)O[C@H]1CCC[C@@H]1C(C#N)(c1cccc(F)c1)C1CCN(CC2CN(c3ccc(CC(F)(F)F)cc3)C2)CC1` (mixture of isomers) [compound 419, rac-(1S,2R)-2-(cyano(3-fluorophenyl)(1-((1-(4-(2,2,2-trifluoroethyl)phenyl)azetidin-3-yl)methyl)piperidin-4-yl)methyl)cyclopentyl acetate], 293 nM.
Regarding `CC(=O)O[C@H]1CCC[C@@H]1C(C#N)(c1ccccc1F)C1CCN(CC2CN(c3ccc(S(=O)(=O)C4CC4)cc3)C2)CC1` (mixture of isomers) [compound 310, rac-(1S,2R)-2-(cyano(1-((1-(4-(cyclopropylsulfonyl)phenyl)azetidin-3-yl)methyl)piperidin-4-yl)(2-fluorophenyl)methyl) cyclopentyl acetate], the concentration for half-maximal inhibition (IC50) was 45 nM.
Take `O=S(=O)(c1ccc(N2CC(CN3CCC(C4(C5CCCC5)CN(CCF)Cc5ccccc54)CC3)C2)cc1)C1CC1` (stereo not shown) [compound 47, 4-cyclopentyl-4-(1-((1-(4-(cyclopropylsulfonyl)phenyl)azetidin-3-yl)methyl)piperidin-4-yl)-2-(2-fluoroethyl)-1,2,3,4-tetrahydroisoquinoline]: the concentration for half-maximal inhibition (IC50) worked out at 137 nM.
Consider `N#Cc1cc2cc(C(=O)N[C@H]3CC[C@H](C4(C5CCCC5)NCCc5ccccc54)CC3)ccc2[nH]1` (stereo partly shown) [compound 80, 2-cyano-N-((1r,4r)-4-(1-cyclopentyl-1,2,3,4-tetrahydroisoquinolin-1-yl)cyclohexyl)-1H-indole-5-carboxamide], for which the IC50 was 11600 nM.
Take `CNC(=O)O[C@@H]1CCC[C@H]1C(C#N)(c1ccccc1)C1CCN(CC2CN(c3ccc(S(=O)(=O)c4ccn(C)n4)cc3)C2)CC1` (mixture of isomers) [compound 231]: the IC50 turned out to be 68 nM.
As to `CN1Cc2cccc(F)c2C(C2CCCC2)(C2CCN(CCCOc3ccc(C#N)cc3)CC2)C1` (stereo not shown) [compound 31, 4-(3-(4-(4-cyclopentyl-5-fluoro-2-methyl-1,2,3,4-tetrahydroisoquinolin-4-yl)piperidin-1-yl)propoxy)benzonitrile], the IC50 stood at 37 nM.
Turning to `N#CC(c1ccccc1)(C1CCN(CC2CN(c3ccc(S(=O)(=O)c4ccncc4)cc3)C2)CC1)[C@H]1CCC[C@@H]1CO` (mixture of isomers) [compound 258, rac-2-((1S,2S)-2-(hydroxymethyl)cyclopentyl)-2-phenyl-2-(1-((1-(4-(pyridin-4-ylsulfonyl)phenyl)azetidin-3-yl)methyl)piperidin-4-yl)acetonitrile], the concentration for half-maximal inhibition (IC50) came out at 563 nM.
Turning to `CC(=O)NCC(c1ccccc1)(C1CCCC1)C1CCN(CCCOc2ccc(C#N)cc2)CC1` (stereo not shown) [compound 40, N-(2-(1-(3-(4-cyanophenoxy)propyl)piperidin-4-yl)-2-cyclopentyl-2-phenylethyl)acetamide], the half-inhibitory concentration (IC50) was determined as 817 nM.
Turning to `CC(=O)O[C@@H]1CCC[C@H]1C(C#N)(c1cccc(C(F)(F)F)c1)C1CCN(CC2CN(c3ccc(C#N)cc3)C2)CC1` (mixture of isomers) [compound 418, rac-(1R,2S)-2-(cyano(1-((1-(4-cyanophenyl)azetidin-3-yl)methyl)piperidin-4-yl)(3-(trifluoromethyl)phenyl)methyl)cyclopentyl acetate], the IC50 was found to be 923000 nM.
In the case of `CNC(=O)O[C@@H]1CCC[C@H]1C(CN1CCCC1)(c1ccccc1)C1CCN(CC2CN(c3ccc(S(=O)(=O)c4ccccc4)cc3)C2)CC1` (mixture of isomers) [compound 360, rac-(1R,2S)-2-(1-phenyl-1-(1-((1-(4-(phenylsulfonyl)phenyl)azetidin-3-yl)methyl)piperidin-4-yl)-2-(pyrrolidin-1-yl)ethyl)cyclopentyl methylcarbamate], the IC50 came to 1400 nM.
Still for that read-out and setting: as for `N#Cc1ccc(OCCCN2CCC(C3(C4CCCCC4)NCCc4ccccc43)CC2)cc1` (stereo not shown) [compound 298, 4-(3-(4-(1-cyclohexyl-1,2,3,4-tetrahydroisoquinolin-1-yl)piperidin-1-yl)propoxy)benzonitrile], the figure is 300 nM.
Consider `CS(=O)(=O)c1ccc(N2CC(CN3CCC(C(C#N)(c4ccccc4)[C@@H]4CCC[C@H]4O)CC3)C2)cc1` (mixture of isomers) [compound 179, rac-2-((1S,2R)-2-hydroxycyclopentyl)-2-(1-((1-(4-(methylsulfonyl)phenyl)azetidin-3-yl)methyl)piperidin-4-yl)-2-phenylacetonitrile], for which the IC50 was 3800 nM.
Still for that read-out and setting: as for `CC(C)CC1(C2CCN(CCCOc3ccc(C#N)cc3)CC2)NCCc2ccccc21` (stereo not shown) [compound 242, 4-(3-(4-(1-isobutyl-1,2,3,4-tetrahydroisoquinolin-1-yl)piperidin-1-yl)propoxy)benzontrile], the figure is 2100 nM; as for `CNC(=O)O[C@H]1CCC[C@@H]1C(Cn1ccnc1)(c1ccccc1)C1CCN(C(=O)CCCc2ccc(C#N)cc2)CC1` (mixture of isomers) [compound 380, rac-(1S,2R)-2-(1-(1-(4-(4-cyanophenyl)butanoyl)piperidin-4-yl)-2-(1H-imidazol-1-yl)-1-phenylethyl)cyclopentyl methylcarbamate], 798 nM; as for `FCC1(CF)CC(N2CCC(C3(C4CCCC4)NCCc4ccccc43)CC2)C1` (stereo not shown) [compound 56, 1-(1-(3,3-bis(fluoromethyl)cyclobutyl)piperidin-4-yl)-1-cyclopentyl-1,2,3,4-tetrahydroisoquinoline], 18200 nM.
In the case of `CN1Cc2ccccc2C(C2CCCC2)(C2CCN(CC3CN(c4ccc(S(C)(=O)=O)cc4)C3)CC2)C1` (stereo not shown) [compound 64, 4-cyclopentyl-2-methyl-4-(1-((1-(4-(methylsulfonyl)phenyl)azetidin-3-yl)methyl)piperidin-4-yl)-1,2,3,4-tetrahydroisoquinoline], the IC50 is 61 nM.
On to `C=C(C)CC1(C2CCN(CCCOc3ccc(C#N)cc3)CC2)NCCc2ccccc21` (stereo not shown) [compound 173, 4-(3-(4-(1-(2-methylallyl)-1,2,3,4-tetrahydroisoquinolin-1-yl)piperidin-1-yl)propoxy)benzonitrile], for which the IC50 was 3000 nM.
Take `O=S(=O)(c1ccncc1)c1ccc(N2CC(CN3CCC(C4(C5CCCC5)CN(CC5COC5)Cc5ccccc54)CC3)C2)cc1` (stereo not shown) [compound 52, 4-cyclopentyl-2-(oxetan-3-ylmethyl)-4-(1-((1-(4-(pyridin-4-ylsulfonyl)phenyl)azetidin-3-yl)methyl)piperidin-4-yl)-1,2,3,4-tetrahydroisoquinoline]: the IC50 came to 25 nM.
